Test results from US20190134005A1 (BioMarin Pharmaceutical Inc., priority 2016, published 2019).
Like-named read-outs stand apart in the source and are kept apart here.

Target: T1, human CGT (Homo sapiens, UniProt Q16880)
T1 sequence (Q16880 21-541): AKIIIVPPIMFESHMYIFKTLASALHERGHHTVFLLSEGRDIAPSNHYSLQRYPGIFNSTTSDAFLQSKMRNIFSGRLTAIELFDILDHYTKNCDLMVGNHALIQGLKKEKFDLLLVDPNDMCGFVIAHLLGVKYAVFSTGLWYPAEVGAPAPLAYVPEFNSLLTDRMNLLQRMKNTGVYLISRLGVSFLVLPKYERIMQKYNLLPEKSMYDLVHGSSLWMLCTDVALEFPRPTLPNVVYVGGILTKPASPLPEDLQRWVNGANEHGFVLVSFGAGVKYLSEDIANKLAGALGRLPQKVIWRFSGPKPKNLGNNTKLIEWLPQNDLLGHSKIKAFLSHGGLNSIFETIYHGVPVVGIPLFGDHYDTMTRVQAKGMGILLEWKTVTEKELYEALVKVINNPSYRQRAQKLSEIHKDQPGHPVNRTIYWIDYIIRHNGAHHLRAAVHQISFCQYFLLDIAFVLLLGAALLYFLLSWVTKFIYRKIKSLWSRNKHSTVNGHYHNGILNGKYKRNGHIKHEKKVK
Assay: Assay 1: CGT Enzymatic Assay (RapidFire/MS/MS, 0.01% Tween 80)
Assay type: biochemical
Details: Table 1, Compounds of Formula (I) and Formula (II), CGT enzymatic assay, read-out: IC50

[1] = C6-NBD-dihydro-galactosylceramide readout

Row | SMILES | IC50 [1] | IC50
1 | O=C1N(c2ccc(Cl)cc2)C2(COC2)C(O)(c2cccc(OC(F)F)c2)N1c1ccc(Cl)cc1 (stereo not shown) [Compound 272, 5,7-bis(4-chlorophenyl)-8-(3-(difluoromethoxy)phenyl)-8-hydroxy-2-oxa-5,7-diazaspiro[3.4]octan-6-one] | < 1000 nM | –
2 | N#Cc1cc(Cl)cc(C2(O)CN(c3ccc(Cl)cc3)C(=O)N2c2ccc(Cl)cc2)c1 (stereo not shown) [Compound 95, 3-(1,3-bis(4-chlorophenyl)-4-hydroxy-2-oxoimidazolidin-4-yl)-5-chlorobenzonitrile] | – | 1000 to 10000 nM
3 | N#Cc1cccc(C2(O)N(c3ccc(Cl)cc3)C(=O)N(c3ccc(Cl)cc3)C23CC3)c1 (stereo not shown) [Example 226, 3-(4,6-bis(4-chlorophenyl)-7-hydroxy-5-oxo-4,6-diazaspiro[2.4]heptan-7-yl)benzonitrile] | – | < 1000 nM
4 | O=C1N(c2ccc(Br)cc2)C(=O)C(O)(c2ccc(F)cc2)N1c1ccc(Br)cc1 (stereo not shown) [Example 172, 1,3-bis(4-bromophenyl)-5-(4-fluorophenyl)-5-hydroxyimidazolidine-2,4-dione] | – | 10000 to 50000 nM
5 | CCc1c(-c2ccccc2)n(-c2ccc(Br)cc2)c(=O)n1-c1ccc(Br)cc1 [Compound 264, 1,3-bis(4-bromophenyl)-4-ethyl-5-phenyl-1,3-dihydro-2H-imidazol-2-one] | – | < 1000 nM
6 | CC1(c2cccc(C(F)(F)F)c2)C(O)N(c2ccc(Cl)cc2)C(=O)N1c1ccc(Cl)cc1 (stereo not shown) [Example 190, 1,3-bis(4-chlorophenyl)-5-hydroxy-4-methyl-4-(3-(trifluoromethyl)phenyl)imidazolidin-2-one] | – | < 1000 nM
7 | N#Cc1ccc(N2C(=O)N(c3ccc(C#N)cc3)C(O)(c3cccc(OC(F)(F)F)c3)C23CCCC3)cc1 (stereo not shown) [Example 326, 4,4′-(4-hydroxy-2-oxo-4-(3-(trifluoromethoxy)phenyl)-1,3-diazaspiro[4.4]nonane-1,3-diyl)dibenzonitrile] | < 1000 nM | –
8 | CC1N(c2ccc(Cl)cc2)C(=O)N(c2ccc(Cl)cc2)C1(O)c1cccc(Br)c1 (stereo not shown) [Compound 94, 4-(3-bromophenyl)-1,3-bis(4-chlorophenyl)-4-hydroxy-5-methylimidazolidin-2-one] | – | < 1000 nM
9 | CN(C)C[C@@H]1N(c2ccc(Cl)cc2)C(=O)N(c2ccc(Cl)cc2)C1(O)c1cccc(OC(F)(F)F)c1 (single isomer, unassigned) [Example 166-1] | – | < 1000 nM
10 | O=C1N(c2ccccc2)CC(O)(c2ccccc2)N1c1ccc(Br)cc1 (stereo not shown) [Example 20, 3-(4-bromophenyl)-4-hydroxy-1,4-diphenylimidazolidin-2-one] | – | > 50000 nM
11 | CCC1N(c2ccc(Br)cc2)C(=O)N(c2ccc(Br)cc2)C1(O)c1cccc(OC(F)(F)F)c1 (stereo not shown) [Compound 83, 1,3-bis(4-bromophenyl)-5-ethyl-4-hydroxy-4-(3-(trifluoromethoxy)phenyl)imidazolidin-2-one] | – | < 1000 nM
12 | CCC1(O)[C@@H](c2ccccc2)N(c2ccc(Br)cc2)C(=O)N1c1ccc(Br)cc1 (stereo partly shown) [Example 45-2] | – | 10000 to 50000 nM
13 | Cc1ccc(N2C(=O)N(c3ccc(C)cc3)C(O)(c3cccc(C#N)c3)[C@@H]2C)cc1 (single isomer, unassigned) [Compound 105-1] | – | 1000 to 10000 nM
14 | N#Cc1ccc(N2C(=O)N(c3ccc(Br)cc3)C(O)(c3cccc(OC(F)(F)F)c3)C23CCC3)cc1 (stereo not shown) [Compound 292, 4-(7-(4-bromophenyl)-8-hydroxy-6-oxo-8-(3-(trifluoromethoxy)phenyl)-5,7-diazaspiro[3.4]octan-5-yl)benzonitrile] | < 1000 nM | –
15 | Cc1ccc(N2C(=O)N(c3ccc(C)cc3)C(O)(c3cccc(C(F)F)c3)C23COC3)cc1 (stereo not shown) [Compound 285, 8-(3-(difluoromethyl)phenyl)-8-hydroxy-5,7-di-p-tolyl-2-oxa-5,7-diazaspiro[3.4]octan-6-one] | < 1000 nM | –
16 | COc1cccc(C2(C)C(O)N(c3ccc(Br)cc3)C(=O)N2c2ccc(Br)cc2)c1 (stereo not shown) [Compound 126, 1,3-bis(4-bromophenyl)-5-hydroxy-4-(3-methoxyphenyl)-4-methylimidazolidin-2-one] | – | 1000 to 10000 nM
17 | CCc1ccc(N2C(=O)N(c3ccc(CC)cc3)C(O)(c3cccc(C#N)c3)[C@H]2C)cc1 (single isomer, unassigned) [Compound 104-2] | – | < 1000 nM
18 | CCCC[C@@H]1N(c2ccc(Cl)cc2)C(=O)N(c2ccc(Cl)cc2)C1(O)c1cccc(C#N)c1 (stereo partly drawn) [Compound 116-1, 3-((5S)-5-butyl-1,3-bis(4-chlorophenyl)-4-hydroxy-2-oxoimidazolidin-4-yl)benzonitrile] | – | < 1000 nM
19 | O=c1n(-c2ccc(Cl)cc2)c(-c2cccc(OC(F)F)c2)c(C2CC2)n1-c1ccc(Cl)cc1 [Compound 70, 1,3-bis(4-chlorophenyl)-4-cyclopropyl-5-(3-(difluoromethoxy)phenyl)-1,3-dihydro-2H-imidazol-2-one] | – | < 1000 nM

Row | SMILES | IC50 [1] | IC50
20 | CC1N(c2ccc(Br)cc2)C(=O)N(c2ccc(Br)cc2)C1(O)c1cccc(OC(F)(F)F)c1 (stereo not shown) [Compound 66, 1,3-bis(4-bromophenyl)-4-hydroxy-5-methyl-4-(3-(trifluoromethoxy)phenyl)imidazolidin-2-one] | – | < 1000 nM
21 | O=C1N(c2ccc(Br)cc2)CC(O)(c2cccc(OC(F)(F)F)c2)N1c1ccc(Br)cc1 (stereo not shown) [Compound 58, 1,3-bis(4-bromophenyl)-4-hydroxy-4-(3-(trifluoromethoxy)phenyl)imidazolidin-2-one] | – | < 1000 nM
22 | C[C@]1(C(F)(F)F)N(c2ccc(Cl)cc2)C(=O)N(c2ccc(Cl)cc2)C1(O)c1cc(C#N)cc(C#N)c1 (stereo partly drawn) [Example 331-1, 5-((5S)-1,3-bis(4-chlorophenyl)-4-hydroxy-5-methyl-2-oxo-5-(trifluoromethyl)imidazolidin-4-yl)isophthalonitrile] | < 1000 nM | –
23 | CCC1N(c2ccc(Cl)cc2)C(=O)N(c2ccc(Cl)cc2)C1(O)c1cccc(OC(F)(F)F)c1 (stereo in doubt) [Compound 82-1, (5S)-1,3-bis(4-chlorophenyl)-5-ethyl-4-hydroxy-4-(3-(trifluoromethoxy)phenyl)imidazolidin-2-one] | – | < 1000 nM
24 | Cc1cccc(-c2c(C)n(-c3ccc(Br)cc3)c(=O)n2-c2ccc(Br)cc2)c1 [Compound 263, 1,3-bis(4-bromophenyl)-4-methyl-5-(m-tolyl)-1,3-dihydro-2H-imidazol-2-one] | – | 1000 to 10000 nM
25 | CCC1(O)CN(c2ccc(Cl)cc2)C(=O)N1c1ccc(Cl)cc1 (stereo not shown) [Example 56, 1,3-bis(4-chlorophenyl)-4-ethyl-4-hydroxyimidazolidin-2-one] | – | > 50000 nM
26 | CCC[C@@]1(C)N(c2ccc(Cl)cc2)C(=O)N(c2ccc(Cl)cc2)C1(O)c1cccc(OC(F)(F)F)c1 (single isomer, unassigned) [Example 170-1] | – | 10000 to 50000 nM
27 | N#Cc1cccc(C2(O)N(c3ccc(Cl)cc3)C(=O)N(c3ccc(Cl)cc3)C23COC3)c1 (stereo not shown) [Compound 151, 3-(5,7-bis(4-chlorophenyl)-8-hydroxy-6-oxo-2-oxa-5,7-diazaspiro[3.4]octan-8-yl)benzonitrile] | – | < 1000 nM
28 | O=C1N(c2ccccc2)C2(CCC2)C(O)(c2cccc(OC(F)(F)F)c2)N1c1ccc(Cl)cc1 (stereo not shown) [Example 334, 7-(4-chlorophenyl)-8-hydroxy-5-phenyl-8-(3-(trifluoromethoxy)phenyl)-5,7-diazaspiro[3.4]octan-6-one] | < 1000 nM | –
29 | CC[C@@H]1N(c2ccc(Cl)cc2)C(=O)N(c2ccc(Cl)cc2)C1(O)c1cccc(Cl)c1 (stereo partly drawn) [Compound 81-1, (5S)-4-(3-chlorophenyl)-1,3-bis(4-chlorophenyl)-5-ethyl-4-hydroxyimidazolidin-2-one] | – | < 1000 nM
30 | C[C@H]1N(c2ccc(F)cc2)C(=O)N(c2ccc(F)cc2)C1(O)c1cccc(OC(F)(F)F)c1 (stereo partly drawn) [Compound 130-2, (5R)-1,3-bis(4-fluorophenyl)-4-hydroxy-5-methyl-4-(3-(trifluoromethoxy)phenyl)imidazolidin-2-one] | – | < 1000 nM
31 | C[C@@H]1N(c2ccc(Br)cc2)C(=O)N(c2ccc(Br)cc2)C1(O)c1cccs1 (stereo partly shown) [Example 49-1] | – | 1000 to 10000 nM
32 | Cc1cccc([C@]2(C)C(O)N(c3ccc(Cl)cc3)C(=O)N2c2ccc(Cl)cc2)c1 (single isomer, unassigned) [Example 222-2] | – | < 1000 nM
33 | O=C1N(c2ccc(Br)cc2)CC(O)(c2ccccc2)N1c1ccc(Br)cc1 (stereo not shown) [Example 1] | – | 1000 to 10000 nM
34 | CCC[C@H]1N(c2ccc(Cl)cc2)C(=O)N(c2ccc(Cl)cc2)C1(O)c1cccc(CC)c1 (stereo partly drawn) [Compound 89-2, (5R)-1,3-bis(4-chlorophenyl)-4-(3-ethylphenyl)-4-hydroxy-5-propylimidazolidin-2-one] | – | < 1000 nM
35 | N#Cc1cccc(-c2c(C3CC3)n(-c3ccc(Cl)cc3)c(=O)n2-c2ccc(Cl)cc2)c1 [Example 48, 3-(1,3-bis(4-chlorophenyl)-5-cyclopropyl-2-oxo-2,3-dihydro-1H-imidazol-4-yl)benzonitrile] | – | < 1000 nM
36 | N#Cc1cccc(C2(O)N(c3ccc(C(F)(F)F)cc3)C(=O)N(c3ccc(C(F)(F)F)cc3)C23CCC3)c1 (stereo not shown) [Example 212, 3-(8-hydroxy-6-oxo-5,7-bis(4-(trifluoromethyl)phenyl)-5,7-diazaspiro[3.4]octan-8-yl)benzonitrile] | – | < 1000 nM
37 | CCc1ccc(N2C(=O)N(c3ccc(CC)cc3)C(O)(c3cccc(C#N)c3)C2C)cc1 (stereo not shown) [Compound 104, 3-(1,3-bis(4-ethylphenyl)-4-hydroxy-5-methyl-2-oxoimidazolidin-4-yl)benzonitrile] | – | < 1000 nM
